Data as given in US8734816B2, “Porous nanoparticle supported lipid bilayer nanostructures” (STC.UNM, priority 2009, dated 2014).
Counter-ions that a name gives are not always drawn.

How the values were obtained:
[1] = system: Chinese Hamster Ovary (CHO) cells; assay: Cellular uptake of supported bilayers (protocells); assay type: cell-based; conditions: green fluorescence of cells
Description: Cell Culture: Chinese Hamster Ovary cells (CHO) were obtained from the American Type Culture Collection (ATCC) and maintained in K-12 media supplemented with about 10% fetal bovine serum, about 1% penicillin and about 1% streptomycin. The media were changed every two to three days and the cells were passaged by trypsinization. To prepare samples for confocal imaging, round glass cover slips were used for cell growth. The glass slides were treated with 0.1M KOH for at least 24 hours before use. Cells in the media were dropped onto the cover slips and the slips were kept in Petri dishes. The cells were kept in an incubator at 37° C. with 5% CO2 and 95% humidity. Cellular uptake of supported bilayers (protocells): about 1 mL of serum free media was warmed to about 37° C. and about 10 μL of the above prepared supported bilayers were added and vortexed. To study the uptake of supported bilayers by CHO cells, the cells were grown to ˜70% confluence. The old media was removed and fresh media with supported bilayers were introduced. The cells were incubated for about four hours at about 37° C. and free particles were washed away with PBS and media before imaging. Confocal fluorescence microscopy: A Bio-Rad Radiance 2100 confocal fluorescence microscope system was used for imaging cells. […]

[2] = Lipid association with mesoporous silica nanoparticles; assay type: physicochemical; conditions: <20 μg liposome per 0.5 mg silica particles; 5% DHPE-Texas Red label; neutral pH
Description: To measure the amount of lipid associated with silica nanoparticles as a function of lipid concentration, about 20 μL aliquots of 25 mg/mL silica nanoparticles were mixed with 1, 2, 3, 5, 7, 10, 20, and 30 μL of 2.5 mg/mL lipids. The lipids tested included DOPC, DOPS and DOTAP, all containing 5% DHPE-Texas Red labels. The mixtures were centrifuged. The Texas Red absorbance from the supernatant and the silica nanoparticles was measured.

[3] = Colloidal stability of the silica/lipid mixture as a function of lipid concentration (dynamic light scattering); assay type: physicochemical; conditions: at low liposome contents
Description: Depending on the relative amount of liposome added, silica particles first aggregated at low lipid concentrations to form large aggregates, which disappeared upon adding more liposomes. […] Similar observations were also reported for polystyrene beads, where aggregation was attributed to liposome mediated nanoparticle assembly at low lipid concentrations. Therefore, to form supported bilayers with good colloidal stability, excess amount of liposomes (50 μg liposome per 0.5 mg silica) were used.

[4] = Quantification of calcein encapsulated / concentration estimation inside mesoporous silica nanoparticles; assay type: physicochemical; conditions: supported bilayers of different lipids
Description: To prepare supported bilayers that encapsulate calcein, the silica nanoparticles were first mixed with 250 μM calcein and liposomes were subsequently added. The remaining procedures were the same as described above.
Mesoporous silica nanoparticles (about 50 mg, no FITC modification) were dispersed in 2 mL water. About 5 μL of 100 mM calcein was added so the final dye concentration was ˜250 μM. The solution was divided into 50 μL aliquots and equal volumes of liposomes of different compositions were mixed to form supported bilayers. The supported bilayers were centrifuged and washed three times with 200 μL of 0.25×PBS to remove free calcein. Finally, about 50 μL of 1% SDS buffer solution was added to the precipitated supported bilayers to disrupt the lipid bilayer and release the calcein dye. About 150 μL of 0.25×PBS was then added to make the final volume to be about 200 μL and the tubes were centrifuged at 15000 rpm for about 2 minutes to precipitate silica nanoparticles. About 10 μL from the supernatant was transferred into a quartz microcuvette with a path length of about 1 cm to measure the absorbance at a wavelength of about 500 nm, which is proportional to the amount of calcein dye retained in the mesoporous silica nanoparticle.
Because the volume of this final solution was about 200 μL, the retained calcein in silica was then about 9 nmol. […]

Structure (SMILES) | uptake of calcein into CHO cells [1] | association of liposomes with silica nanoparticles [2] | average size of particles [3] | calcein encapsulation efficiency (comparison of lipids) [4]
O=C(O)CN(CC(=O)O)Cc1cc2c(cc1O)Oc1cc(O)c(CN(CC(=O)O)CC(=O)O)cc1C21OC(=O)c2ccccc21 [calcein] | can not take | – | – | –
CCCCCCCC/C=C\CCCCCCCC(=O)OC[C@H](COP(=O)([O-])OCC[N+](C)(C)C)OC(=O)CCCCCCC/C=C\CCCCCCCC [DOPC, 1,2-Dioleoyl-sn-Glycero-3-Phosphocholine] | – | almost quantitatively associated | significant increase | –
CCCCCCCC/C=C\CCCCCCCC(=O)OC[C@H](COP(=O)(O)OC[C@H](N)C(=O)O)OC(=O)CCCCCCC/C=C\CCCCCCCC [DOPS, 1,2-Dioleoyl-sn-Glycero-3-[Phospho-L-Serine] (Sodium Salt)] | – | did not associate | – | –
CCCCCCCC/C=C\CCCCCCCC(=O)OCC(C[N+](C)(C)C)OC(=O)CCCCCCC/C=C\CCCCCCCC.[Cl-] (stereo not shown) [DOTAP, 1,2-Dioleoyl-3-Trimethylammonium-Propane (Chloride Salt)] | – | almost quantitatively associated | significant increase | highest
